Data on twelve molecules can be found in PMC9415646, “Improving Aqueous Solubility and In Vitro Pharmacokinetic Properties of the 3-Nitroimidazo[1,2-a]pyridine Antileishmanial Pharmacophore” (Pharmaceuticals, 2022).

Data set [1] in a line: Cytotoxicity on THP-1 cell line (MTT). It is filed as cell-based. The conditions noted are these: human, THP-1 cells, THP1 cell line. The method, then: The plates were incubated for 72 h at 37 °C. Each well plate was then microscope-examined for detecting possible precipitate formation before the medium was aspirated from the wells. 100 µL of MTT solution (0.5 mg/mL in medium) were then added to each well. Cells were incubated for 2 h at 37 °C. […] Plates were shaken vigorously (300 rpm) for 10 min. The absorbance was measured at 570 nm using a BIO-TEK ELx808 Absorbance Microplate Reader. DMSO was used as blank and doxorubicin (purchased from Sigma Aldrich) as positive control. Cell viability was calculated as percentage of control (cells incubated with DMSO). […] (Palo Alto, CA, USA). CC50 values represent the mean value calculated from three separate experiments.

In data set [2] the test system is L. donovani promastigotes. The data set is described as follows: Antileishmanial activity against L. donovani promastigotes (MTT assay). It is filed as cell-based. The conditions noted are these: Leishmania donovani; promastigotes, 72 h, MTT; read-out: EC50 L. donovani Pro. As to the method: The Leishmania species used in this study were L. donovani (MHOM/IN/00/DEVI) purchased from CNR Leishmania (Montpellier, France). Leishmania promastigote forms were grown in Schneider’s Drosophila medium (Life Technologies, Saint-Aubin, France) supplemented with 100 U/mL penicillin, 100 µg/mL streptomycin, 2 mM L-glutamine and 20% FCS (Life Technologies, Saint-Aubin, France) at 27 °C. The in vitro evaluation of the tested compound’s antileishmanial activity on promastigote forms was carried out by MTT assay according to the Mosmann protocol with some modifications. Briefly, promastigotes in log-phase were incubated at an average density of 10^6 parasites/mL in sterile 96-well plates with various concentrations of compound dissolved in DMSO (final concentration less than 0.5% v/v), in duplicate. Appropriate controls treated with DMSO, Miltefosine, Amphotericin B, Fexinidazole, and Fexinidazole sulfone (reference drugs purchased from Sigma-Aldrich, Saint-Louis, Missouri, USA) were added to each set of experiments. After a 72 h incubation period at 27 °C, parasitic metabolic activity was determined. Each plate-well was then microscope-analyzed to detect any precipitate formation. 20 µL of MTT (3-(4,5-dimethylthiazol-2-yl)-2,5-diphenyltetrazolium bromide) (Sigma-Aldrich, Saint-Louis, Missouri, USA) solution (5 mg/mL in PBS) were added to each well and incubated for 4 h at 27 °C. The enzyme reaction was then stopped by addition of 100 µL of 50% isopropanol–10% sodium dodecyl sulfate. Plates were shaken vigorously at 300 rpm for 10 min. The absorbance was measured at 570 nm in a BIO-TEK Elx808 (Biotek, Colmar, France) absorbance microplate reader. […] EC50 values were calculated by non-linear regression analysis processed dose-response curves, using TableCurve 2D V5.0 software (Systat Software Inc. (Palo Alto, CA, USA)). EC50 values represent the mean value calculated from at least three separate experiments.
On the technique in general: Tetrazolium assays rely on reduction of a dye to a coloured formazan, in cell work by metabolically active cells.

Data set [3] in a line: Cytotoxicity evaluation on HepG2 cell line (MTT). Conditions: human, HepG2 cells. It is filed as cell-based. As to the method:
The tested molecules’ cytotoxicity was assessed according to the method of Mosmann with slight modifications. […] Triplicate assays were performed for each sample. Each plate-well was then microscope-examined to detect possible precipitate formation before the medium was aspirated from the wells. 100 µL of MTT (3-(4,5-dimethyl-2-thiazolyl)-2,5-diphenyl-2H-tetrazolium bromide) solution (0.5 mg/mL in medium without FCS) were then added to each well. […] Plates were shaken vigorously (700 rpm) for 10 min. The absorbance was measured at 570 nm with 630 nm as reference wavelength using a BIO-TEK ELx808 Absorbance Microplate Reader. DMSO was used as blank and doxorubicin (purchased from Sigma Aldrich) as positive control. Cell viability was calculated as percentage of control (cells incubated without compound). […] (Palo Alto, CA, USA)). CC50 values represent the mean value calculated from three separate experiments.

The nature of data set [4]: Thermodynamic solubility at pH 7.4 (miniaturized shake-flask). It is filed as physicochemical. Conditions: phosphate buffer (PBS), aqueous buffer, kinetic from dmso stock, pH 7.4, PBS, 23 °C. As to the method: Thermodynamic solubility at pH 7.4 of compounds was determined according to a miniaturized shake-flask method (Organisation for Economic Cooperation and Development guideline n°105). Phosphate Buffer solutions (pH 7.4, […], ionic strength […]) were prepared from Na2HPO4, KH2PO4 and KCl (Sigma Aldrich, Saint Quentin Fallavier, France); 10 µL of 20 mM stock solution were added to 5 mL glass tubes containing […] buffer (n = 3). The tubes were briefly sonicated and shacked by inversion during 24 h at 23 °C. Then, the tube contents were placed in a microtube which was centrifuged at 12,225× g for 10 min; 100 µL supernatant were mixed with 100 µL acetonitrile in a Greiner UV microplate. Standard solutions were prepared extemporaneously, diluting 20 mM DMSO stock solutions at […]; 5 µL of each working solution were diluted with 995 µL buffer and 100 µL were then mixed in microplates with 100 µL acetonitrile so as to ensure that the final proportions of each solvent in standard solutions and samples remained unchanged. Solubility at pH 7.4 was determined with an Infinite M200Pro (Tecan, Lyon, France) microplate reader in spectrophotometric mode (230 to 450 nm) from the specific λmax of each compound. The calibration curve was obtained from the […] standard solutions of tested compounds at 0, 25, 50, and 100 µM in a 50:50 (vol/vol) mixture of buffer with acetonitrinile/DMSO (99:1; vol/vol). Calibration curves were linear with R^2 > 0.99.

Data set [5] can be described thus: Mouse microsomal stability. It is filed as in vitro ADME. Conditions: female, CD-1, pH 7.4; mouse liver microsomes; read-out: Mouse Microsomal Stability T1/2. The method, then: The tested product and propranolol, used as reference, were incubated in duplicate (reaction volume of 0.5 mL) with female mouse microsomes (CD-1, 20 mg/mL, BD Gentest™) at 37 °C in a 50 mM phosphate buffer, pH 7.4, in the presence of MgCl2 (5 mM), NADP (1 mM), glucose-6-phosphate dehydrogenase (0.4 U/mL) and glucose-6-phosphate (5 mM). […] After centrifugation at 10,000× g, 10 min, 4 °C, the supernatants were maintained at 4 °C for immediate analysis or placed at -80 °C for later analysis. Controls (t0 and tfinal) in triplicate were prepared by incubation of the internal standard with microsomes denatured by acetonitrile. […] The mobile phases were (A) ammonium acetate 10 mM and (B) acetonitrile with 0.1% formic acid. The injection volume was 1 µL and the flow rate 600 µL/min. […] Each compound was quantified by converting the average of the ratios of the analyte/internal standard surfaces to the percentage of product consumed. The ratio of the control at t0 corresponded to 0% of product consumed. The half-life (T1/2) of each compound in the presence of microsomes was calculated according to the equation: t1/2=ln(2)/k , where k is the first-order degradation constant (the slope of the logarithm of compound concentration versus incubation time). The intrinsic clearance in vitro (Clint expressed in μL/min/mg) is calculated according to the equation: Clint=dose/AUC∞/[microsomes] where “dose” is the initial concentration of product in the sample, AUC∞ is the area under the concentration-time curve extrapolated to infinity and [microsomes] is the microsome concentration expressed in mg/µL.
In general terms: Liver microsomes are vesicles of endoplasmic reticulum, rich in cytochrome P450 enzymes.

SMILES strings stand for the structures. Converted amounts (≈) assume the structure as drawn.

For orientation: CC50 means the concentration that lowers cell viability or growth by half. Read a high CC50 as lower toxicity to the cells. A word on the EC50: it is the concentration that produces a half-maximal response. Broadly, the solubility (thermodynamic) is the concentration in solution at equilibrium with solid. For `O=[N+]([O-])c1c(CS(=O)(=O)c2ccc(OC(F)(F)F)cc2)nc2c(Br)cc(Cl)cn12` [Compound 2f, 8-Bromo-6-Chloro-3-Nitro-2-[(4-Trifluoromethoxyphenylsulfonyl)methyl]imidazo[1,2-a] pyridine], the CC50 at 72 h in data set [1] is > 100 µM; in data set [3], > 25 µM. The EC50 in data set [2] is 4.4 ± 0.1 µM. Also, the thermodynamic solubility at 24 h in data set [4] amounted to 8.6 ± 2.3 µM (≈ 4.43 µg/mL).
`COc1ccc(S(=O)(=O)Cc2nc3c(Br)cc(Cl)cn3c2[N+](=O)[O-])cc1` [Compound 2g, 8-Bromo-6-Chloro-2-[(4-Methoxyphenylsulfonyl)methyl]-3-Nitroimidazo[1,2-a]pyridine]: the CC50 at 72 h in data set [1] was > 100 µM; in data set [3] it was 3.9 ± 1.3 µM. Moreover, in data set [2], the EC50 is 2.8 ± 0.9 µM. Besides, the solubility (thermodynamic) at 24 h in data set [4] came to 5.7 ± 1.3 µM (≈ 2.63 µg/mL).
On to `O=[N+]([O-])c1c(CS(=O)(=O)c2ccc(O)cc2)nc2c(Sc3ccc(Cl)cc3)cc(Cl)cn12` [Compound 3a, 4-{[(6-Chloro-8-[(4-Chlorophenyl)thio]-3-Nitroimidazo[1,2-a]pyridin-2-yl)methyl]sulfonyl}phenol], for which the CC50 at 72 h in data set [1] was 28.2 ± 0.1 µM; in data set [3], 22.3 ± 2.5 µM. The EC50 in data set [2] was 0.8 ± 0.2 µM.
Consider `O=[N+]([O-])c1c(CS(=O)(=O)c2ccc(Cl)cc2)nc2c(Sc3ccc(Cl)cc3)cc(Cl)cn12` [Compound 3b, 6-Chloro-2-[(4-Chlorophenylsulfonyl)methyl]-8-[(4-Chlorophenyl)thio]-3-Nitroimidazo[1,2-a]pyridine], for which the figures for the CC50 at 72 h in data set [1] and in data set [3] were > 15.6 µM and 8.9 ± 1.3 µM, respectively. The EC50 in data set [2] worked out at 1.4 ± 0.1 µM. Moreover, the half-life in data set [5] worked out at 4.5 min. The thermodynamic solubility at 24 h in data set [4] was < 2 µM.
For the molecule `O=[N+]([O-])c1c(CS(=O)(=O)c2ccc(F)cc2)nc2c(Sc3ccc(Cl)cc3)cc(Cl)cn12` [Compound 3c, 6-Chloro-8-[(4-Chlorophenyl)thio]-2-[(4-Fluorophenylsulfonyl)methyl]-3-Nitroimidazo[1,2-a]pyridine], the CC50 at 72 h was > 100 µM in data set [1] and > 15.6 µM in data set [3]. In addition, in data set [2], the EC50 was determined as 0.9 ± 0.1 µM. Besides, the half-life in data set [5] came to 5.7 min. In addition, the thermodynamic solubility at 24 h in data set [4] is < 2 µM.
For the molecule `O=[N+]([O-])c1c(CS(=O)(=O)c2ccc(C(F)(F)F)cc2)nc2c(Sc3ccc(Cl)cc3)cc(Cl)cn12` [Compound 3d, 6-Chloro-8-[(4-Chlorophenyl)thio]-3-Nitro-2-[(4-Trifluoromethylphenylsulfonyl)methyl]imidazo[1,2-a]pyridine], the CC50 at 72 h in data set [1] was > 50 µM; in data set [3], > 3.9 µM. For the same molecule, the EC50 in data set [2] amounted to 1.8 ± 0.2 µM. The same molecule yielded a thermodynamic solubility at 24 h in data set [4] of 2.5 ± 0.7 µM (≈ 1.41 µg/mL).
For the molecule `O=[N+]([O-])c1c(CS(=O)(=O)c2ccc(OC(F)(F)F)cc2)nc2c(Sc3ccc(Cl)cc3)cc(Cl)cn12` [Compound 3e, 6-Chloro-8-[(4-Chlorophenyl)thio]-3-Nitro-2-[(4-Trifluoromethoxyphenylsulfonyl)methyl]imidazo[1,2-a]pyridine], the CC50 at 72 h is > 100 µM in data set [1] and > 12.5 µM in data set [3]. The EC50 in data set [2] was determined as 2.6 ± 0.2 µM. In addition, the thermodynamic solubility at 24 h in data set [4] was found to be 64.7 ± 7.3 µM (≈ 37.4 µg/mL).
In the case of `COc1ccc(S(=O)(=O)Cc2nc3c(Sc4ccc(Cl)cc4)cc(Cl)cn3c2[N+](=O)[O-])cc1` [Compound 3f, 6-Chloro-8-[(4-Chlorophenyl)thio]-2-[(4-Methoxyphenylsulfonyl)methyl]-3-Nitroimidazo[1,2-a]pyridine], the CC50 at 72 h in data set [1] was > 50 µM; in data set [3], > 3.9 µM. Moreover, the EC50 in data set [2] amounted to 1.2 ± 0.1 µM. Besides, the solubility (thermodynamic) at 24 h in data set [4] is < 2 µM.
As for `O=[N+]([O-])c1c(CS(=O)(=O)C2CC2)nc2c(Sc3ccc(Cl)cc3)cc(Cl)cn12` [Compound 3h, 6-Chloro-8-[(4-Chlorophenyl)thio]-2-[(cyclopropylsulfonyl)methyl]-3-Nitroimidazo[1,2-a]pyridine], the figures for the CC50 at 72 h in data set [1] and in data set [3] were > 62.5 µM and 22.3 ± 2.5 µM, respectively. For the same molecule, in data set [2], the EC50 came to 2.2 ± 0.3 µM. The solubility (thermodynamic) at 24 h in data set [4] was found to be 3 ± 0.4 µM (≈ 1.38 µg/mL).
For `O=[N+]([O-])c1c(CS(=O)(=O)CCC(F)(F)F)nc2c(Sc3ccc(Cl)cc3)cc(Cl)cn12` [Compound 3i, 6-Chloro-8-[(4-Chlorophenyl)thio]-3-Nitro-2-[(3,3,3-Trifluoropropylsulfonyl)methyl]imidazo[1,2-a]pyridine], the figures for the CC50 at 72 h in data set [1] and in data set [3] were > 50 µM and > 6.2 µM, respectively. The EC50 in data set [2] was 1.4 ± 0.2 µM. Further, in data set [5], the half-life was found to be 9.1 min. In data set [4], this molecule came in with a solubility (thermodynamic) at 24 h of 12.4 ± 3 µM (≈ 6.38 µg/mL).
For `O=[N+]([O-])c1c(CS(=O)(=O)CCC(F)(F)F)nc2c(S(=O)(=O)c3ccc(Cl)cc3)cc(Cl)cn12` [Compound 6b, 6-Chloro-8-[(4-Chlorophenyl)sulfonyl]-3-Nitro-2-[(3,3,3-Trifluoropropylsulfonyl)methyl] imidazo[1,2-a]pyridine], the CC50 at 72 h in data set [1] was > 100 µM; in data set [3], > 10 µM. For the same molecule, in data set [2], the EC50 was 1.3 ± 0.2 µM. Moreover, in data set [5], the half-life stood at 7.9 min.
Take `CSc1ccc(OCc2ncc([N+](=O)[O-])n2C)cc1` [Fexinidazole, reference compound]: the CC50 at 72 h in data set [1] and in data set [3] was > 100 µM each time. For the same molecule, the EC50 in data set [2] worked out at 1.2 ± 0.2 µM.
